Values joined by “and” are separate entries in the source; they are usually repeats but may differ in a detail not shown here. Equal values may be shown once.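 A five-concentration, 48-hour dose response in 96-well plates underlies each endpoint, interpolated linearly between surrounding concentrations. GI50: concentration for 50% inhibition of growth. TGI: concentration producing complete growth inhibition.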
System: MALME-3M melanoma
Test: NCI-60 cell line screen, 48 h

Compound | TGI [µM] | GI50 [µM]
CC(=O)c1c2c(c3ccccc3c1O)O[C@@H]1OCC[C@H]21 | > 100 | –
C[C@]12CC[C@H](O)CC1=CC[C@@H]1[C@@H]2CC[C@]2(C)C(=N/N)/C(=N\O)C[C@@H]12 | > 100 | –
Cc1ccc(NC(=O)c2ccc(OP(=O)(O)Nc3ccc(C)cc3)cc2)cc1 | > 100 | –
COc1ccc(CN2C(=O)/C(=C\c3cc(OC)c(OC)c(OC)c3)c3ccccc32)cc1 | 3.3 | 0.562
Cc1ccnc(NS(=O)(=O)c2ccc(N=[N+]=[N-])cc2)n1 | > 100 | –
Cc1ccccc1C(=N)c1ccccc1Cc1cccc2ccccc12 | 27.3 | –
CCC(=O)NCC1CCCN2CCCCC12 (stereo unspecified) | > 100 | –
O=C(C1OC1c1ccc(Br)cc1O)C12CC3CC(CC(C3)C1)C2 (stereo unspecified) | 42.1 | –
Cc1ccc(N(Cc2ccccc2)Cc2ccccc2)cc1 | 61 | –
CC(C)=CCC[C@@H](C)c1c(O)c(O)c(C)c2nccnc12 | 66.7 | –
S=C(N/N=C(/c1ccccc1)c1ccccn1)N(Cc1ccccn1)Cc1ccccn1 | 2.45 | –
Cc1ccc(-c2cc(-c3ccco3)c(C#N)c(=S)n2C2OC(CO)C(O)C(O)C2O)cc1 (stereo unspecified) | > 100 | –
Cc1oc2c(cc(O)c3cc(O)ccc32)c2cccc1-2 | > 100 | –
NC(N)=Nc1ccc(CC(N)NCC(=O)O)cc1 (stereo unspecified) | > 25 | –
O=C(Cc1ccc(O)c(O)c1)NCc1c[nH]c2ccccc12 | 76.5 | –
COc1nncc2[nH]c(-c3ccccc3)cc12 | > 100 | –
O=C(NCc1ccccc1)c1n[nH][nH]c1=O | > 100 | –
O=S(=O)(c1ccccc1)c1cccc2c1NCCC2 | > 100 | –
COP(=O)(OC)C1=c2c(C)noc2=C2C=COC2C1=O (stereo unspecified) | > 100 | –
CCOC(=O)N1CCN(Cc2cc(=O)n3ccc(C)cc3n2)CC1 | > 100 | –
COc1cccc(C2SC(N)=Nc3c2c(C)nn3C(=O)c2ccccc2O)c1 (stereo unspecified) | > 10 | –

System: SF-295 CNS
Test: NCI-60 cell line screen, 48 h

Compound | TGI | GI50
CCOC(=O)c1c(CN2CCCC2)n(-c2ccccc2)c2cc(Br)c(O)cc12 | 32 µM | –
Nn1c(-c2ccccc2)n[nH]c1=O | > 100 µM | –
Cc1cc(-c2nc3ccc(F)cc3s2)ccc1NC(=O)[C@H](C)N | 24.7 µM | –
Cc1cc(C)nc(NS(=O)(=O)c2ccc(NC(=O)c3ccc4nc5ccccc5c(Nc5ccc(S(N)(=O)=O)cc5)c4c3)cc2)n1 | > 100 µM | –
Nc1c(-c2ccc(Cl)c(Cl)c2)c2ccc([N+](=O)[O-])cc2c(=O)n1-c1nc2ccccc2s1 | 20.4 µM | –
NS(=O)(=O)c1nnc(NC(=O)Nc2ccc(Cl)c(Cl)c2)s1 | > 100 µM | –
COC(=O)c1c(C)nc2c1cc(O)c1[nH]c(C)c(C)nc12 | > 100 µM | –
Cn1c2ccc3cc2c(=S)c2cc(ccc21)OCCOCCOCCOCCOCCOCCO3 | > 10 µM | –
O=[N+]([O-])c1cc(C=NC23CC4CC(CC(C4)C2)C3)ccc1Cl | 96.9 µM | –
CCCCCC1=CC(=O)C1(Cl)Cl | 62.1 µM | –
CC(=O)N(C(=O)CC(=O)N1N=C(c2ccccc2)C(N=Nc2ccccc2[N+](=O)[O-])C1=O)c1ccc(Cl)cc1 (stereo unspecified) | > 10 µM | –
CC(=O)N1C(C(=O)NC2CCCCC2)CSC1c1ccccc1 (stereo unspecified) | > 100 µM | –
COc1ncc(/C=C2\OC(=O)c3ccccc32)c(OC)n1 | > 100 µM | –
CC(=O)Nn1c(=S)[nH]c2ccccc21 | > 100 µM | –
C[C@]12CCC3C4=C(CCC3C1CCC2=O)C(=O)[C@H]1O[C@H]1C4=O (stereo partly specified) | 29.8 µM | –
CCCCOC(=O)Nc1ccc(S(=O)(=O)Nc2ccccc2Cl)cc1 | 32.9 µM | –
CC(C)c1cc2c(cc1S(=O)(=O)O)[C@@]1(C)CCC[C@@](C)(C(=O)O)C1CC2 (stereo partly specified) | > 100 µM | –
N#CC(Cc1ccccc1)N(CCC1=CCCCC1)C(c1ccccc1)c1ccccc1 (stereo unspecified) | > 100 µM | –
C/C(=C\CBr)CCC(Br)C(C)(C)Br (stereo unspecified) | > 100 µM | –
C#CCn1c(=O)c2ccccc2n(CC#C)c1=O | > 10 µM | –
[N-]=[N+]=NC(c1ccccc1)(c1ccccc1)c1ccccc1 | 27.1 µM | –
CC1CN(C)c2ccccc2N=C1NN (stereo unspecified) | > 100 µM | –

Compound | TGI | GI50
CC(=O)c1c2c(c3ccccc3c1O)O[C@@H]1OCC[C@H]21 | > 100 µM | –
C[C@]12CC[C@H](O)CC1=CC[C@@H]1[C@@H]2CC[C@]2(C)C(=N/N)/C(=N\O)C[C@@H]12 | > 100 µM | –
Cc1ccc(NC(=O)c2ccc(OP(=O)(O)Nc3ccc(C)cc3)cc2)cc1 | > 100 µM | –
COc1ccc(CN2C(=O)/C(=C\c3cc(OC)c(OC)c(OC)c3)c3ccccc32)cc1 | 35.8 µM | 3.79 µM
Cc1ccnc(NS(=O)(=O)c2ccc(N=[N+]=[N-])cc2)n1 | > 100 µM | –
Cc1ccccc1C(=N)c1ccccc1Cc1cccc2ccccc12 | 62.5 µM | –
CCC(=O)NCC1CCCN2CCCCC12 (stereo unspecified) | > 100 µM | –
O=C(C1OC1c1ccc(Br)cc1O)C12CC3CC(CC(C3)C1)C2 (stereo unspecified) | 43 µM | –
Cc1ccc(N(Cc2ccccc2)Cc2ccccc2)cc1 | > 100 µM | –
CC(C)=CCC[C@@H](C)c1c(O)c(O)c(C)c2nccnc12 | > 71.2 µM | –
S=C(N/N=C(/c1ccccc1)c1ccccn1)N(Cc1ccccn1)Cc1ccccn1 | 1.82 µM | –
Cc1ccc(-c2cc(-c3ccco3)c(C#N)c(=S)n2C2OC(CO)C(O)C(O)C2O)cc1 (stereo unspecified) | 31.3 µM and > 100 µM | 11.8 µM and 28.6 µM
Cc1oc2c(cc(O)c3cc(O)ccc32)c2cccc1-2 | > 100 µM | –
NC(N)=Nc1ccc(CC(N)NCC(=O)O)cc1 (stereo unspecified) | > 25 µM | –
O=C(Cc1ccc(O)c(O)c1)NCc1c[nH]c2ccccc12 | > 100 µM | –
COc1nncc2[nH]c(-c3ccccc3)cc12 | > 100 µM | –
O=C(NCc1ccccc1)c1n[nH][nH]c1=O | > 100 µM | –
O=S(=O)(c1ccccc1)c1cccc2c1NCCC2 | > 100 µM | –
COP(=O)(OC)C1=c2c(C)noc2=C2C=COC2C1=O (stereo unspecified) | > 100 µM | –
CCOC(=O)N1CCN(Cc2cc(=O)n3ccc(C)cc3n2)CC1 | > 100 µM | –
COc1cccc(C2SC(N)=Nc3c2c(C)nn3C(=O)c2ccccc2O)c1 (stereo unspecified) | > 10 µM | –

System: TK-10 renal
Test: NCI-60 cell line screen, 48 h

Compound | TGI [µM] | GI50 [µM]
CCOC(=O)c1c(CN2CCCC2)n(-c2ccccc2)c2cc(Br)c(O)cc12 | 48 | –
Nn1c(-c2ccccc2)n[nH]c1=O | > 100 | –
Cc1cc(-c2nc3ccc(F)cc3s2)ccc1NC(=O)[C@H](C)N | 5.11 | –
Cc1cc(C)nc(NS(=O)(=O)c2ccc(NC(=O)c3ccc4nc5ccccc5c(Nc5ccc(S(N)(=O)=O)cc5)c4c3)cc2)n1 | > 100 | –
Nc1c(-c2ccc(Cl)c(Cl)c2)c2ccc([N+](=O)[O-])cc2c(=O)n1-c1nc2ccccc2s1 | 30.5 | –
NS(=O)(=O)c1nnc(NC(=O)Nc2ccc(Cl)c(Cl)c2)s1 | 43.9 | –
COC(=O)c1c(C)nc2c1cc(O)c1[nH]c(C)c(C)nc12 | > 100 | –
Cn1c2ccc3cc2c(=S)c2cc(ccc21)OCCOCCOCCOCCOCCOCCO3 | > 10 | –
O=[N+]([O-])c1cc(C=NC23CC4CC(CC(C4)C2)C3)ccc1Cl | > 87.2 | –
CCCCCC1=CC(=O)C1(Cl)Cl | 20.8 | –
CC(=O)N(C(=O)CC(=O)N1N=C(c2ccccc2)C(N=Nc2ccccc2[N+](=O)[O-])C1=O)c1ccc(Cl)cc1 (stereo unspecified) | > 10 | –
CC(=O)N1C(C(=O)NC2CCCCC2)CSC1c1ccccc1 (stereo unspecified) | > 100 | –
COc1ncc(/C=C2\OC(=O)c3ccccc32)c(OC)n1 | > 100 | –
CC(=O)Nn1c(=S)[nH]c2ccccc21 | > 100 | –
C[C@]12CCC3C4=C(CCC3C1CCC2=O)C(=O)[C@H]1O[C@H]1C4=O (stereo partly specified) | 10.8 | –
CCCCOC(=O)Nc1ccc(S(=O)(=O)Nc2ccccc2Cl)cc1 | 46.6 | –
CC(C)c1cc2c(cc1S(=O)(=O)O)[C@@]1(C)CCC[C@@](C)(C(=O)O)C1CC2 (stereo partly specified) | > 100 | –
N#CC(Cc1ccccc1)N(CCC1=CCCCC1)C(c1ccccc1)c1ccccc1 (stereo unspecified) | > 100 | –
C/C(=C\CBr)CCC(Br)C(C)(C)Br (stereo unspecified) | > 100 | –
C#CCn1c(=O)c2ccccc2n(CC#C)c1=O | > 10 | –
[N-]=[N+]=NC(c1ccccc1)(c1ccccc1)c1ccccc1 | 32.4 | –
CC1CN(C)c2ccccc2N=C1NN (stereo unspecified) | > 100 | –

Compound | TGI [µM] | GI50 [µM]
CC(=O)c1c2c(c3ccccc3c1O)O[C@@H]1OCC[C@H]21 | > 100 | –
C[C@]12CC[C@H](O)CC1=CC[C@@H]1[C@@H]2CC[C@]2(C)C(=N/N)/C(=N\O)C[C@@H]12 | > 100 | –
Cc1ccc(NC(=O)c2ccc(OP(=O)(O)Nc3ccc(C)cc3)cc2)cc1 | > 100 | –
COc1ccc(CN2C(=O)/C(=C\c3cc(OC)c(OC)c(OC)c3)c3ccccc32)cc1 | 4.33 | 1.14
Cc1ccnc(NS(=O)(=O)c2ccc(N=[N+]=[N-])cc2)n1 | > 100 | –
Cc1ccccc1C(=N)c1ccccc1Cc1cccc2ccccc12 | > 100 | –
CCC(=O)NCC1CCCN2CCCCC12 (stereo unspecified) | > 100 | –
O=C(C1OC1c1ccc(Br)cc1O)C12CC3CC(CC(C3)C1)C2 (stereo unspecified) | > 100 | –
Cc1ccc(N(Cc2ccccc2)Cc2ccccc2)cc1 | > 100 | –
CC(C)=CCC[C@@H](C)c1c(O)c(O)c(C)c2nccnc12 | > 100 | –
S=C(N/N=C(/c1ccccc1)c1ccccn1)N(Cc1ccccn1)Cc1ccccn1 | 1.58 | –
Cc1ccc(-c2cc(-c3ccco3)c(C#N)c(=S)n2C2OC(CO)C(O)C(O)C2O)cc1 (stereo unspecified) | > 100 | –
Cc1oc2c(cc(O)c3cc(O)ccc32)c2cccc1-2 | > 100 | –
NC(N)=Nc1ccc(CC(N)NCC(=O)O)cc1 (stereo unspecified) | > 25 | –
O=C(Cc1ccc(O)c(O)c1)NCc1c[nH]c2ccccc12 | 69.5 | –
COc1nncc2[nH]c(-c3ccccc3)cc12 | > 100 | –
O=C(NCc1ccccc1)c1n[nH][nH]c1=O | > 100 | –
O=S(=O)(c1ccccc1)c1cccc2c1NCCC2 | > 100 | –
COP(=O)(OC)C1=c2c(C)noc2=C2C=COC2C1=O (stereo unspecified) | > 100 | –
CCOC(=O)N1CCN(Cc2cc(=O)n3ccc(C)cc3n2)CC1 | > 100 | –
COc1cccc(C2SC(N)=Nc3c2c(C)nn3C(=O)c2ccccc2O)c1 (stereo unspecified) | > 10 | –

— PubChem BioAssay (NCI)
